# Source: patent US10059669B2, “2-amino-3,5-difluoro-3,6-dimethyl-6-phenyl-3,4,5,6-tetrahydropyridines as BACE1 inhibitors for treating alzheimer's disease” (H. Lundbeck A/S, priority 2014, dated 2018)
# Experiments:
# BACE1 [1] = target: T1, BACE1 (Homo sapiens (Human), UniProt P56817); test: BACE1 binding assay (SPA-based radioligand binding); conditions: pH 4.5, 10 nM radioligand, Ki calculated from IC50
# Method: The binding assay was performed as SPA-based assay using a biotinylated form of human BACE1 recombinantly expressed and subsequently purified from Freestyle HEK293 cells. The binding assay was run in a 50 mM sodium acetate buffer, pH 4.5 containing 50 mM NaCl and 0.03% Tween-20 in white clear bottom 384 plates (Corning #3653). 10 nM (final concentration) radioligand ([^3H]—N-((1S,2R)-1-benzyl-3-cyclopropylamino-2-hydroxy-propyl)-5-(methanesulfonyl-methyl-amino)-N—((R)-1-phenyl-ethyl)-isophthalamide) (TRQ11569 purchased from GE Healthcare) was mixed with test compound at a given concentration, 6 nM (final concentration) human BACE1 and 25 μg Streptavidin coated PVT core SPA beads (RPNQ0007, GE Healthcare Life Sciences) in a total volume of 40 μl. Several concentrations of each test compound were tested in the assay for IC50 determination. The plates were incubated for one hour at room temperature and counted in a Wallac Trilux counter. Total and non-specific binding were determined using buffer and 1 μM (final concentration) of the high affinity BACE1 reference inhibitor (S)-6-[3-chloro-5-(5-prop-1-ynyl-pyridin-3-yl)-thiophen-2-yl]-2-imino-3,6-dimethyl-tetrahydro-pyrimidin-4-one, respectively. For each test compound, a IC50 value (the concentration mediating 50% inhibition of the specific binding of the radioligand) was determined from concentration-response curve and used to calculate the Ki from the equation Ki=IC50/(1+L/Kd), where L and Kd are the final concentration of the radioligand used in the assay and the dissociation constant of the radioligand, respectively. The Kd of the radioligand was determined from saturation binding experiments.
# BACE1 [2] = target: T1, BACE1; test: BACE1 efficacy assay (FRET-based, commercial BACE1 kit); assay type: biochemical; conditions: 10 μM test compound
# Method: The efficacy assay was performed as a FRET-based assay using a commercially available BACE1 kit (Life Technologies, P2985). 2 μl test compound at 10 μM (final concentration) and 15 μl BACE1 enzyme from the kit (final concentration 3 nM) were preincubated for 15 minutes at room temperature before addition of 15 μl of substrate from the kit (250 nM final concentration) and incubated for additional 90 minutes at room temperature. The assay plate was subsequently read in a Pherastar (Ex540/Em590). The enzyme activity observed in presence of test compound were normalized to the enzyme activity observed in presence of buffer and 10 μM (final concentration) of the high affinity BACE1 reference inhibitor (S)-6-[3-Chloro-5-(5-prop-1-ynyl-pyridin-3-yl)-thiophen-2-yl]-2-imino-3,6-dimethyl-tetra-hydropyrimidin-4-one, respectively. The efficacy of the test compounds was evaluated at 10 μM (final concentration) and defined as the percent inhibition of the enzyme activity using the equation % inhibition=100%−normalized enzyme activity in percent.
# P-gp (MDR1) = test: MDCK-MDR1 assay (permeability, efflux ratio); assay type: in vitro ADME; conditions: dog, Papp BA/Papp AB, 60-minute incubation, Pgp substrate when ≥2
# Method: The permeability of the test compounds was assessed in MDCK-MDR1 cells that were cultured to confluency (4-6 days) in a 96 transwell plate. Test compounds were diluted with the transport buffer (HBSS+1% BSA) to a concentration of 0.5 μM and applied to the apical or basolateral side of the cell monolayer. Permeation of the test compounds from A to B direction or B to A direction was determined in triplicate over a 60-minute incubation time at 37° C. and 5% CO2 with a relative humidity of 95%. Test compounds were quantified by LC-MS/MS analysis based on the peaks area ratios of analyte/IS in both the receiver and donor wells of the transwell plate.
# The apparent permeability coefficient Papp (cm/s) was calculated using the equation: Papp=(dCr/dt)×Vr/(A×C0)
# Where dCr/dt is the cumulative concentration of compound in the receiver chamber as a function of time (M/s); Vr is the solution volume in the receiver chamber (0.05 mL on the apical side; 0.25 mL on the basolateral side); A is the surface area for the transport, i.e. 0.0804 cm^2 for the area of the monolayer; C0 is the initial concentration in the donor chamber (VIM).
# Compounds are classified Pgp substrates when efflux ratio (Papp BA/Papp AB) is ≥2.
# T1 sequence (P56817 46-501): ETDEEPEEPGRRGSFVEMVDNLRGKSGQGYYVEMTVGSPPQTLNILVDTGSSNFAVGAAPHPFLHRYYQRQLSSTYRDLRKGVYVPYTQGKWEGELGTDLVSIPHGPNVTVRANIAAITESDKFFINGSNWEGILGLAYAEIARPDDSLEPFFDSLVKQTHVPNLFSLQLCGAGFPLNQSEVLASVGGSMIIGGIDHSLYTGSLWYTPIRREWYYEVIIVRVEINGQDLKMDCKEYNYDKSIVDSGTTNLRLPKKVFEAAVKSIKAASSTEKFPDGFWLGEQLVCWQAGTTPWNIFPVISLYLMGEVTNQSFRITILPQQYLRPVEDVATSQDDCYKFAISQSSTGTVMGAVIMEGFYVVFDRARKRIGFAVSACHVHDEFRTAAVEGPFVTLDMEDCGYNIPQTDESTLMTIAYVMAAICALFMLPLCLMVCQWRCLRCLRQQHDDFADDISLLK
Ki (BACE1 [1]) [µM],inhibition at 10 µM (BACE1 [2]) [%],"efflux ratio at 60 min, 0.5 μM (P-gp (MDR1))",Compound
0.03,103,1.09,"C[C@]1(F)C[C@H](F)[C@@](C)(c2cc(NC(=O)c3ccc(F)cn3)ccc2F)N=C1N [Compound 1, N-(3-((2R,3S,5S)-6-Amino-3,5-difluoro-2,5-dimethyl-2,3,4,5-tetrahydropyridin-2-yl)-4-fluorophenyl)-5-fluoropicolinamide]"
0.026,99,0.79,"COc1cnc(C(=O)Nc2ccc(F)c([C@@]3(C)N=C(N)[C@@](C)(F)C[C@@H]3F)c2)cn1 [Compound 2, N-(3-((2R,3S,5S)-6-amino-3,5-difluoro-2,5-dimethyl-2,3,4,5-tetrahydropyridin-2-yl)-4-fluorophenyl)-5-methoxypyrazine-2-carboxamide]"
0.098,101,1.17,"C[C@@]1(F)C[C@H](F)[C@@](C)(c2cc(NC(=O)c3ccc(F)cn3)ccc2F)N=C1N [Compound 4, N-(3-((2R,3S,5R)-6-amino-3,5-difluoro-2,5-dimethyl-2,3,4,5-tetrahydropyridin-2-yl)-4-fluorophenyl)-5-fluoropicolinamide]"
0.051,,1.53,"COc1cnc(C(=O)Nc2ccc(F)c([C@@]3(C)N=C(N)[C@](C)(F)C[C@@H]3F)c2)cn1 [Compound 5, N-(3-((2R,3S,5R)-6-amino-3,5-difluoro-2,5-dimethyl-2,3,4,5-tetrahydropyridin-2-yl)-4-fluorophenyl)-5-methoxypyrazine-2-carboxamide]"
0.058,101,1.1,"Cc1nc(C(=O)Nc2ccc(F)c([C@@]3(C)N=C(N)[C@](C)(F)C[C@@H]3F)c2)co1 [Compound 6, N-(3-((2R,3S,5R)-6-amino-3,5-difluoro-2,5-dimethyl-2,3,4,5-tetrahydropyridin-2-yl)-4-fluorophenyl)-2-methyloxazole-4-carboxamide]"
0.039,102,5.67,"COc1ccc(C(=O)Nc2ccc(F)c([C@@]3(C)N=C(N)[C@](C)(F)C[C@@H]3F)c2)nc1 [Compound 7, N-(3-((2R,3S,5R)-6-amino-3,5-difluoro-2,5-dimethyl-2,3,4,5-tetrahydropyridin-2-yl)-4-fluorophenyl)-5-methoxypicolinamide]"
0.058,100,0.95,"[2H]C([2H])([2H])Oc1ccc(C(=O)Nc2ccc(F)c([C@@]3(C)N=C(N)[C@](C)(F)C[C@@H]3F)c2)nc1 [Compound 8, N-(3-((2R,3S,5R)-6-amino-3,5-difluoro-2,5-dimethyl-2,3,4,5-tetrahydropyridin-2-yl)-4-fluorophenyl)-5-(methoxy-d3)picolinamide]"
0.036,109,1.31,"C[C@@]1(F)C[C@H](F)[C@@](C)(c2cc(NC(=O)c3ccc(Cl)cn3)ccc2F)N=C1N [Compound 9, N-(3-((2R,3S,5R)-6-amino-3,5-difluoro-2,5-dimethyl-2,3,4,5-tetrahydropyridin-2-yl)-4-fluorophenyl)-5-chloropicolinamide]"
0.82,115,,"Cn1ccnc1C(=O)Nc1ccc(F)c([C@@]2(C)N=C(N)[C@](C)(F)C[C@@H]2F)c1 [Compound 10, N-(3-((2R,3S,5R)-6-amino-3,5-difluoro-2,5-dimethyl-2,3,4,5-tetrahydropyridin-2-yl)-4-fluorophenyl)-1-methyl-1H-imidazole-2-carboxamide]"
0.19,104,,"C[C@@]1(F)C[C@H](F)[C@@](C)(c2cc(NC(=O)c3cnc(C(F)(F)F)cn3)ccc2F)N=C1N [Compound 11, N-(3-((2R,3S,5R)-6-amino-3,5-difluoro-2,5-dimethyl-2,3,4,5-tetrahydropyridin-2-yl)-4-fluorophenyl)-5-(trifluoromethyl)pyrazine-2-carboxamide]"
0.099,118,,"Cc1csc(C(=O)Nc2ccc(F)c([C@@]3(C)N=C(N)[C@](C)(F)C[C@@H]3F)c2)n1 [Compound 12, N-(3-((2R,3S,5R)-6-amino-3,5-difluoro-2,5-dimethyl-2,3,4,5-tetrahydropyridin-2-yl)-4-fluorophenyl)-4-methylthiazole-2-carboxamide]"
0.062,108,11.7,"C[C@@]1(F)C[C@H](F)[C@@](C)(c2cc(NC(=O)c3coc(C(F)F)n3)ccc2F)N=C1N [Compound 13, N-(3-((2R,3S,5R)-6-amino-3,5-difluoro-2,5-dimethyl-2,3,4,5-tetrahydropyridin-2-yl)-4-fluorophenyl)-2-(difluoromethyl)oxazole-4-carboxamide]"
0.045,112,15.8,"C[C@@]1(F)C[C@H](F)[C@@](C)(c2cc(NC(=O)c3ccn(C(F)F)n3)ccc2F)N=C1N [Compound 14, N-(3-((2R,3S,5R)-6-amino-3,5-difluoro-2,5-dimethyl-2,3,4,5-tetrahydropyridin-2-yl)-4-fluorophenyl)-1-(difluoromethyl)-1H-pyrazole-3-carboxamide]"
0.1,108,2.07,"C[C@@]1(F)C[C@H](F)[C@@](C)(c2cc(NC(=O)c3cnc(C(F)F)cn3)ccc2F)N=C1N [Compound 15, N-(3-((2R,3S,5R)-6-amino-3,5-difluoro-2,5-dimethyl-2,3,4,5-tetrahydropyridin-2-yl)-4-fluorophenyl)-5-(difluoromethyl)pyrazine-2-carboxamide]"
0.22,103,1.6,"C[C@@]1(F)C[C@H](F)[C@@](C)(c2cc(NC(=O)c3ccc(Cl)cc3)ccc2F)N=C1N [Compound 16, N-(3-((2R,3S,5R)-6-amino-3,5-difluoro-2,5-dimethyl-2,3,4,5-tetrahydropyridin-2-yl)-4-fluorophenyl)-4-chlorobenzamide]"
0.039,,0.45,"C[C@@]1(F)C[C@H](F)[C@@](C)(c2cc(NC(=O)c3ccc(C#N)cn3)ccc2F)N=C1N [Compound 17, N-(3-((2R,3S,5R)-6-amino-3,5-difluoro-2,5-dimethyl-2,3,4,5-tetrahydropyridin-2-yl)-4-fluorophenyl)-5-cyanopicolinamide]"
0.0068,101,1.24,"[2H]C([2H])([2H])Oc1ccc(C(=O)Nc2cc(F)c(F)c([C@@]3(C)N=C(N)[C@](C)(F)C[C@@H]3F)c2)nc1 [Compound 18, N-(3-((2R,3S,5R)-6-amino-3,5-difluoro-2,5-dimethyl-2,3,4,5-tetrahydropyridin-2-yl)-4,5-difluorophenyl)-5-(methoxy-d3)picolinamide]"
0.0043,103,,"C[C@]1(F)C[C@H](F)[C@@](C)(c2cc(NC(=O)c3ccc(Br)cn3)ccc2F)N=C1N [Compound 24, N-(3-((2R,3S,5S)-6-amino-3,5-difluoro-2,5-dimethyl-2,3,4,5-tetrahydropyridin-2-yl)-4-fluorophenyl)-5-bromopicolinamide]"
